Experimental data: publication PMC3057987 (PLoS ONE, 2011)
Ends that are not written are not given here.

Assays:
[1] = test system: p53 pathway in HCT116-p53+/+ cells; assay: Activation of the p53 pathway (western blot, quantitative RT-PCR) in HCT116-p53+/+ cells; type: cell-based, human; conditions: plasmid transfection
Description: (§1) Figure 4 Functional analyses of GFP-MIP in living cells. […] (A) Immunoprecipitation assays with anti-GFP were performed followed by western blot with an anti-MDM2 antibody. I, input; F, flow-through; B, beads. (B) The whole cell lysates were analyzed by western blot with antibodies against p53, MDM2, p21 and β-actin. (C) mRNA levels of p53, MDM2, p21 and GAPDH were determined by quantitative reverse transcription-PCR using total RNA extracted from the cells. GAPDH was used for normalization.
Figure 5 Activation of the p53 pathway by inhibiting the MDM2-p53 interaction. […] After 48 h, immunoprecipitation assay with anti-FLAG antibody was performed followed by western blot with anti-MDM2 or anti-FLAG antibody. […] After 24 h, the whole cell lysates were analyzed by western blot with antibodies against p53, p21 and β-actin. […] After 24 h, mRNA levels of p53, MDM2, p21 and GAPDH were determined by quantitative reverse transcription-PCR using total RNA extracted from the cells. GAPDH was used for normalization.
(§2) Whole cell lysate was analyzed by western blot analysis with antibodies against p53 (Cell signaling, Beverly, MA, […]), MDM2 (SMP14, Santa Cruz), p21 (SX118, Pharmingen, San Diego, CA, USA) and β-actin (AC-15, Sigma). The blots were developed using an ECL chemiluminescence kit (GE Healthcare, Waukesha, WI, USA).
Total RNA was extracted with the RNeasy mini kit from cells. The RNA was used as template for the real-time RT-PCR reaction with the QuantiTect SYBR Green RT-PCR kit (Qiagen) using the p53F and p53R primer set, the mdm2F and mdm2R primer set or the p21F and p21R primer set. The GAPDH gene was used for normalization with the Light cycler primer sets (Roche, Basel, Switzerland).

[2] = test system: p53 pathway in SW480 cells (p53 mt); assay: Activation of the p53 pathway (western blot) in SW480 cells; type: cell-based; conditions: SW480 cells containing inactive mutated p53, plasmid transfection
Description: as §1, §2

HCT116-p53+/+ cells = assay: WST-1 cell viability / cell growth assay in HCT116-p53+/+ cells; type: cell-based; conditions: plasmid transfection, data not shown
MDMX-p53 interaction = target: T1, MDMX-p53 interaction (Homo sapiens, UniProt O15151); assay: ELISA of MDMX (1-200) bound to immobilized His6-p53 in the presence of synthetic peptides; type: binding
T1 construct: the cDNA of MDMX (1–200 amino acids) was amplified by PCR; made in house; host or cells: MDMX: wheat germ cell-free translation system; p53: E. coli BL21 (DE3) codon+
T1 sequence (O15151 1-200): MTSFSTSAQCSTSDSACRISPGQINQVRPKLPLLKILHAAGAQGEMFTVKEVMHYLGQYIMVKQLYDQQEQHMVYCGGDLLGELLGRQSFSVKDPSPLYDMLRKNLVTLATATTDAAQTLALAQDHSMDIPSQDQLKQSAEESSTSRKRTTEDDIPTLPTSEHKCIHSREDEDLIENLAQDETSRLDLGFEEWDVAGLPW
Description: (§3) The resulting plasmid was transformed into the E. coli strain BL21 (DE3) codon+. The cells were grown in LB with 50 µg/ml carbenicillin at 37°C to an optical density (OD600) of 0.5 and induced with 1 mM IPTG for 6 h. […] After washing with PBST, the plates were blocked with 5% skim milk at 4°C for 30 min. […] The RNA was purified with the RNeasy mini kit and in vitro-translated in a wheat germ cell-free translation system to produce MDMX protein.

MDM2-p53 interaction = target: T2, MDM2-p53 interaction (Homo sapiens, UniProt Q00987); assay: ELISA of MDM2 (7-300) bound to immobilized His6-p53 in the presence of synthetic peptides; type: binding
T2 construct: In vitro-translated MDM2 (7–300 amino acids) mixed with the synthetic peptides; made in house; host or cells: MDM2: in vitro translated (wheat germ cell-free system for the bait preparation); p53: E. coli BL21 (DE3) codon+
Description: as §3

[3] = target: T3, MDM2_(7–300) fused to the TAP tag (human (A549 cell-derived cDNA library), UniProt Q00987 7-300); assay: ELISA; competition: synthetic peptide at various concentrations mixed with in vitro-translated MDM2 (7–300) or MDMX (1–200) in binding buffer (5% skim milk, 10% glycerol), added to His6-p53 immobilized on copper-coated plates, 1 h at room temperature; detection with anti-MDM2 (SMP14) or anti-FLAG M2; conditions: one partner purified
T3 construct: MDM2, residues 7-300, cDNA amplified from an A549 cell-derived cDNA library; primers and plasmid are named MDM(1–294) / pCMV-MDM294-CBPzz; The ELISA methods name only 'in vitro-translated MDM2 (7–300 amino acids)'; also called TAP-tagged MDM2; MDM2 (7–300 amino acids); source: in vitro translated (wheat germ cell-free translation system); immobilised on IgG beads for the pull-down
T3 sequence (Q00987 7-300): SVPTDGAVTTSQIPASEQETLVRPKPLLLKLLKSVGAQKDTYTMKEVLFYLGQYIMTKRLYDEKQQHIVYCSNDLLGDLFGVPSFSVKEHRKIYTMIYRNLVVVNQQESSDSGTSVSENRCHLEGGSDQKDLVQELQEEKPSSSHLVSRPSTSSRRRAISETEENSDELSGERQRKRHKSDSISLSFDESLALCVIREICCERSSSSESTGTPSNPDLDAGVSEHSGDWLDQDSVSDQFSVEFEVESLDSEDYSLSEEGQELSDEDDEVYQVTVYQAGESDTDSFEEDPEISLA

MDMX (1–200 amino acids) = target: T4, MDMX (1–200 amino acids) (human, UniProt O15151 1-200); assay: as above; conditions: one partner purified
T4 construct: MDMX, residues 1-200, cDNA amplified from a Human Mosaic cDNA template; also called MDMX(1–200)-FLAG; source: in vitro translated (wheat germ cell-free translation system)
T4 sequence (looked up): T1 sequence (O15151 1-200)

GFP-MIP: GFP-fused MIP (PRFWEYWLRLME; also: GFP-fused, end not given here)
MDM2 and p21 at the mRNA level ([1]; quantitative RT-PCR): increased
p53 mRNA level ([1]; quantitative RT-PCR): no effect
p53 and its targets (MDM2 and p21) at the protein level ([1]; western blot): increase
p53 and its targets (MDM2 and p21) at the protein level [2]: not
proliferation of cells expressing the GFP-fused peptide (HCT116-p53+/+ cells): not inhibited

LTAEHYAAQATS [3A, reference compound]
IC50 (MDMX-p53 interaction): > 100 µM
IC50 (MDM2-p53 interaction): > 100 µM

PRFWEAWLRLME [MIP (Y6A)]
IC50 (MDM2-p53 interaction): > 100 µM

PRFWEYALRLME [MIP (W7A)]
IC50 (MDM2-p53 interaction): > 100 µM

B1: MIP (F3A), synthetic peptide (peptide)
peptide: PRAWEYWLRLME
notes: MIP with Phe3 replaced by Ala; source: synthetic peptide
IC50 [3]: 570 nM

B2: MIP (R9A), synthetic peptide (peptide)
peptide: PRFWEYWLALME
notes: MIP with Arg9 replaced by Ala; source: synthetic peptide
IC50 [3]: 20 nM

B3: MIP (M11A), synthetic peptide (peptide)
peptide: PRFWEYWLRLAE
notes: MIP with Met11 replaced by Ala; source: synthetic peptide
IC50 [3]: 400 nM

B4: MIP (L10A), synthetic peptide (peptide)
peptide: PRFWEYWLRAME
notes: MIP with Leu10 replaced by Ala; source: synthetic peptide
IC50 [3]: 1140 nM

B5: MIP (MDM2 Inhibitory Peptide), synthetic peptide (peptide)
peptide: PRFWEYWLRLME
notes: 12-mer selected by mRNA display from a partially randomized library; also called X12-1; source: synthetic peptide
IC50 (MDMX (1–200 amino acids)): 120 nM
IC50 [3]: 10 nM
